Assay results reported in patent publication US7473783B2, “Bicyclic pyrazolo protein kinase modulators” (SGX Pharmaceuticals, Inc., priority 2003, dated 2009).

Columns and labels:
cAbl = target: T1, cAbl (Mus musculus, UniProt P00520); experiment: Abl kinase assay (PK/LDH coupled, NADH loss at 340 nm); format: biochemical; conditions: Table 7; 10 μM ATP
T1 construct: 2 μg/mL Abl kinase domain; made in house; host or cells: E. coli BL21(DE3) strains
T1 sequence (P00520 242-493 limits assumed): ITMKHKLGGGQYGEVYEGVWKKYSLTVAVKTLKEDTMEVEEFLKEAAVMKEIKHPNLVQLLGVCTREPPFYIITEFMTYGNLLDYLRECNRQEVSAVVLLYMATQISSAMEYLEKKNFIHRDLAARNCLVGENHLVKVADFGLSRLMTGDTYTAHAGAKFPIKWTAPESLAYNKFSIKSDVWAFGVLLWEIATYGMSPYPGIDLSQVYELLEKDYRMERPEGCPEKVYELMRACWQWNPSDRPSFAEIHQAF
Description: (§1) Although this example presents the use of the kinase domain of a mutant form of Abl T315I 0-P, the kinase assays may use various forms of mutant and wild type Abl, including, for example, the entire molecule, the kinase domain, or a portion thereof. The kinases used in the assays may also be of varying phophorylation states. In the present example, a mutant kinase at a zero phosphorylation state was used.
Materials: Abl substrate peptide=EAIYAAPFAKKK-OH (Biopeptide, SD CA); βNADH (Sigma CAT#N-8129, FW=709.4); 2M MgCl2; 1M HEPES buffer, pH 7.5; Phosphoenolpyruvate=PEP (Sigma CAT#P-7002, FW=234); Lactate dehydrogenase=LDH (Worthington Biochemical CAT#2756); Pyruvate Kinase=PK (Sigma CAT#P-9136); ATP (Sigma CAT#A-3377, FW=551); Greiner 384-well UV star plate; and Purified and unphosphorylated T315I Abl kinase domain (clone 5582d42PPt6p6).
Stock Solutions: 10 mM NADH (7.09 mg/mL in miliQH2O) make fresh daily; 10 mM Abl substrate peptide (13.4 mg/mL in miliQH2O) store at −20° C.; 100 mM HEPES buffer, pH 7.5 (5 mL 1M stock+45 mL miliQH2O); 100 mM MgCl2 (5 mL 2M MgCl2+95 ml dH2O); 100 mM PEP (23.4 mg/mL in dH2O) store at −20° C.; 10 mM ATP (5.51 mg/mL in dH2O) store at −20° C. (dilute 50 μL into total of 10 mL miliQH2O daily=50 μM ATP working stock); 1000 U/mL PK (U/mg varies with lot) flash-freeze under liquid N2 and store at −80° C.; and 1000 U/mL LDH (U/mg varies with lot) flash-freeze under liquid N2 and store at −80° C.
Standard Assay Setup for 384-well format (50 μl reaction): 300 μM NADH; 10 mM MgCl2; 2 mM PEP; 45 U/mL PK; 60 U/mL LDH; 200 μM Abl substrate peptide; 2.5 μL test compound (in DMSO); 2 μg/mL Abl kinase domain; 10 μM ATP; 100 mM HEPES buffer; QS with miliQ dH2O to 50 μL; Positive controls contained DMSO with no test compound. Negative controls contained 5 μl of 0.5M EDTA (50 mM in the assay). The dephosphorylated form of the c-Abl T315I mutant were used in the biochemical screening assays. The kinase reaction was initiated at time t=0 by the addition of ATP.
The activity was measured by following the time-dependent loss of NADH by absorbance spectroscopy at 340 nm. The linear portion of the resulting progress curve was then be analyzed by linear regression to get the activity in absorbance units/time, reported as the slope of that best fit line (moles/unit time can be calculated from using molar extinction coefficient for NADH at 340 nm, 6250M^−1cm^−1).
Data was analyzed using the equation: Z′=1-[3*(σ++σ−)/|μ+−μ−|], where μ denotes the mean and σ the standard deviation. The subscript designates positive or negative controls. The Z′ score for a robust screening assay should be ≧0.50. The typical threshold=μ+−3*σ+. Any value that falls below the threshold was designated a “hit”.
Dose response was analyzed using the equation: y=min+{(max−min)/(1+10^[compound]-logIC50)}, where y is the observed initial slope, max=the slope in the absence of inhibitor, min=the slope at infinite inhibitor, and the IC50 is the [compound] that corresponds to ½ the total observed amplitude (Amplitude=max−min).
To measure modulation, activation, or inhibition of AblKD, a test compound was added to the assay at a range of concentrations. Inhibitors may inhibit AblKD activity at an IC50 in the micromolar range, the nanomolar range, and, for example, in the subnanomolar range.
To measure the binding of a compound to Abl or AblKD, a test kit manufactured by Discoverx (Fremont, Calif.), ED—Staurosporine NSIP™ Enzyme Binding Assay Kit (see U.S. Pat. No. 5,643,734) was used.

wild type MET kinase = target: T2, wild type MET kinase (Homo sapiens, UniProt P08581); experiment: MET Kinase-Glo assay; format: biochemical; conditions: Table 9, 60 minutes at RT
T2 construct: made in house
T2 sequence (P08581 25-1390): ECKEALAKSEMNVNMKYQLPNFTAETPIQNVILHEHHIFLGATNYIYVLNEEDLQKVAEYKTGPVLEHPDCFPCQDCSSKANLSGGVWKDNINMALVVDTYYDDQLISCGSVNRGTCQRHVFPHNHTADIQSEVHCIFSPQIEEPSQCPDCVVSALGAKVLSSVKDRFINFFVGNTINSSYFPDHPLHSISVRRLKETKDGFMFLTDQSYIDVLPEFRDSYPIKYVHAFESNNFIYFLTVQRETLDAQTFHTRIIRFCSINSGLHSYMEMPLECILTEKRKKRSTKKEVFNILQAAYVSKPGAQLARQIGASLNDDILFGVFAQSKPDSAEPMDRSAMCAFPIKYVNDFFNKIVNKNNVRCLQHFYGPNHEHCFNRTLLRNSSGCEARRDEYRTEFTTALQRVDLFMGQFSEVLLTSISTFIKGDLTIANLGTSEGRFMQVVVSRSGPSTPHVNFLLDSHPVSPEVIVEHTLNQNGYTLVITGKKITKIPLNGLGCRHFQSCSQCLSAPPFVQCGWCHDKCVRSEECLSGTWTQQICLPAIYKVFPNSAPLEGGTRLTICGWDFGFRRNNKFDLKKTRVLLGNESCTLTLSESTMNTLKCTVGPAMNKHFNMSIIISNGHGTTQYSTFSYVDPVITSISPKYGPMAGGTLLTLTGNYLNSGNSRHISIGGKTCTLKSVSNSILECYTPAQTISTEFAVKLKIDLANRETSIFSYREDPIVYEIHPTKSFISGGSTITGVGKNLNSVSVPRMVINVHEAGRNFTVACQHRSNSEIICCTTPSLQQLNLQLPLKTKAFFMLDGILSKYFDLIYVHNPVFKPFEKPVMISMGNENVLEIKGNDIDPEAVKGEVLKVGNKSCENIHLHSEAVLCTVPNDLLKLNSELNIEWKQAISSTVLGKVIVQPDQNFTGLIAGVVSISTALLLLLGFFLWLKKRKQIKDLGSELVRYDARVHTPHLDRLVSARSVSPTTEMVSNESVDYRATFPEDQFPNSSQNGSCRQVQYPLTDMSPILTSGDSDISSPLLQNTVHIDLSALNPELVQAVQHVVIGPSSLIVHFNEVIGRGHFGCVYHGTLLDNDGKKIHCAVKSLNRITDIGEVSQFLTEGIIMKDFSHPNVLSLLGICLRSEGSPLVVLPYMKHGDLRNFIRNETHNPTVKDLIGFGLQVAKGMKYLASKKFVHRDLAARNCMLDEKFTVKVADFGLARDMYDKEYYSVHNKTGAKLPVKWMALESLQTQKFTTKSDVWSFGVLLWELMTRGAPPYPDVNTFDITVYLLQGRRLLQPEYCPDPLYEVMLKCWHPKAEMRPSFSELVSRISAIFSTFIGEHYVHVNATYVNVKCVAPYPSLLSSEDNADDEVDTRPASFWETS
Description: as §1, with “wild type MET and RON […],” for “the kinase domain of a mutant form of Abl T315I 0-P,”, “RON or MET,” for “Abl,”, “intracellular domain,” for “molecule,”, “case of RON,” for “present example,”
(§2) For the MET and RON assays, the Kinase-Glo® assay system (Promega) was used, which employs firefly luciferase to detect the amount of ATP following a kinase reaction. This assay system has two steps. First, the kinase reaction is run for a designated period of time. Next, an equivalent volume of Kinase-Glo reagent is added to quench the kinase reaction and detect the ATP remaining in the sample. The total light output is read by a plate-reading luminometer and the resulting signal is stable for 4 hours. Inhibition of kinase activity translates into lower ATP consumption and thus higher light output during the detection step.
(§3) Materials: Poly EY 4:1 (Sigma); MgCl2 (2M stock available from Lab Support); HEPES buffer, pH 7.5; Bovine serum albumin (Roche 92423420); ATP (Sigma CAT#A-3377, FW=551); White Costar 384-well flat-bottom plate (VWR 29444-088); and SGX RON kinase clone (M1254T activation loop mutant) or SGX MET kinase clone.
MET enzyme mix: 100 mM HEPES pH 7.5, 10 mM MgCl2, 0.3 mg/mL poly EY, 0.1% BSA, and 0.4 μg/mL MET kinase.
(§4) To each well of a multiwell plate was added 15 μL of the enzyme mix, 1 μL of compound at 20-times the desired final assay concentration (or DMSO for positive controls or 200 μM staurosporine for negative controls), and 4 μL of 50 μM ATP to start the reaction. The kinase was reaction to allowed to proceed for 60 minutes at RT for the MET assay. For the RON assay, the reaction proceeded at RT for 60 minutes to 120 minutes (depending on enzyme prep). 20 μL Kinase-Glo reagent was then added to each well. The reagent was incubated for at least 10 minutes before plate reading.
(§5) Data anlaysis was performed using methods similar to those described above in the Abl assay (Firepower®, Exegetix).

[1] = target: T3, RON kinase (M1254T activation loop mutant) (Homo sapiens, UniProt Q04912, M1254T); experiment: RON Kinase-Glo assay; format: biochemical; conditions: Table 9, 60 minutes to 120 minutes at RT
T3 construct: made in house
T3 sequence (Q04912 25-1400 M1254T): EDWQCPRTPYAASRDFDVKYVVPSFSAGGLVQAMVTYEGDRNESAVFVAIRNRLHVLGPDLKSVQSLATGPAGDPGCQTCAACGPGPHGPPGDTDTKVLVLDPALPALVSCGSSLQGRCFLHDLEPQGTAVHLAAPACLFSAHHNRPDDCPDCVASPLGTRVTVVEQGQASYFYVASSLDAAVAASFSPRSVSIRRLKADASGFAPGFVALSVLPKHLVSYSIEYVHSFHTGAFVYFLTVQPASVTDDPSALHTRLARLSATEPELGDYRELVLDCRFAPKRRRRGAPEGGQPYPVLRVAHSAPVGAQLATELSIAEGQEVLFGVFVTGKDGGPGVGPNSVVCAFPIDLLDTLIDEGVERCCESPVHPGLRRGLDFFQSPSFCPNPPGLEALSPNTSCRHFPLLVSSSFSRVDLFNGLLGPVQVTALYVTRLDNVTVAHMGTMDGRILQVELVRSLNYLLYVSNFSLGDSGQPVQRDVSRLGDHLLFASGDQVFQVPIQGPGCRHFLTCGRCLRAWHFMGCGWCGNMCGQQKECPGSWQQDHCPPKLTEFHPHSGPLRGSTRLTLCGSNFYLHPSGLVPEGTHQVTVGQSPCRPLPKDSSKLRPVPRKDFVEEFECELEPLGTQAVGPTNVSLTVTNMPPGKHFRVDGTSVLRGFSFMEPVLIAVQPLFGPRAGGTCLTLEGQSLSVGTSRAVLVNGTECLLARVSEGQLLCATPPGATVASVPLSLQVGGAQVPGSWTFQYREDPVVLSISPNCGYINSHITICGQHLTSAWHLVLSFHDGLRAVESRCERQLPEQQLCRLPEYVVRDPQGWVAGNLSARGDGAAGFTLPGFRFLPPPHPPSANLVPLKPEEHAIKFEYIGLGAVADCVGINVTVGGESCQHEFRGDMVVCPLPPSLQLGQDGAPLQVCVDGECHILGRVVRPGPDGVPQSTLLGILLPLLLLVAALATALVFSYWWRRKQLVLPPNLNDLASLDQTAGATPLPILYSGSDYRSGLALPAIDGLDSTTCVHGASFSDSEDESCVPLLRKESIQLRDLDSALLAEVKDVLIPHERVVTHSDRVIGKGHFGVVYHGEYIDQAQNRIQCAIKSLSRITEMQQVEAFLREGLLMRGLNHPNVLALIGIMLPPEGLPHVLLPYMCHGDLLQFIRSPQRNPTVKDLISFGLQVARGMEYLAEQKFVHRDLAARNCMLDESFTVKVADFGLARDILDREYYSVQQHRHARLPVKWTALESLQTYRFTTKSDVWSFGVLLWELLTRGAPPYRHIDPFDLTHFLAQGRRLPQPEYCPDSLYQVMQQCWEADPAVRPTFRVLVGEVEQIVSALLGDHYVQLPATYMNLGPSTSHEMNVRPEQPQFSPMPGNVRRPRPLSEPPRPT
Description: as §1, with “wild type MET and RON […],” for “the kinase domain of a mutant form of Abl T315I 0-P,”, “RON or MET,” for “Abl,”, “intracellular domain,” for “molecule,”, “case of RON,” for “present example,”
as §2, §3
RON enzyme mix: 100 mM HEPES pH 7.5, 10 mM MgCl2, 1 mg/mL poly EY, 0.1% BSA, and 3-5 μg/mL RON kinase (depending on enzyme prep).
as §4, §5

THP cells = experiment: Cell survival assay (96-well XTT / 384-well AlamarBlue), THP; format: cell-based; conditions: Table 10; symbol in brackets; 72 hours
Description: (§6) Flt3 cell line selection was performed according to the following two known methodologies: Kelly, et al, Cancer Cell 1:421-32 (2002); and Ye, et al, Blood 100: 2941-2949 (2002). MV4-11 and THP cells are maintained in Iscove's Modified Dulbecco's Medium supplemented with 10% fetal bovine serum (FBS) and penicillin/streptomycin, Ba/F3 cells are maintained in RPMI 1640 supplemented with 10% FBS, penicillin/streptomycin and 5ng/ml recombinant mouse IL-3.
(§7) Compounds were tested in both of the following assays in triplicates.
(§8) 96-well XTT assay: Cells are grown in their growth media containing various concentrations of compounds (triplicates) on a 96-well plate for 72 hours at 37° C. The starting cell number is 8000 cells per well and volume is 120 μl. At the end of the 72-hour incubation, 40μl of XTT labeling mixture (50:1 solution of sodium 3′-[1 -(pheylamino-carbonyl)-3,4-tetrazolium]-bis (4-methoxy-6-nitro)benzene sulfonic acid hydrate and Electron-coupling reagent: PMS (N-methyl dibenzopyrazine methyl sulfate) is added to each well of the plate. After additional 2 hours of incubation at 37° C., the absorbance reading at 405 nm with background correction at 650 nm is done using a spectrophotometer.
(§9) 384-well AlamarBlue assay: 90 μl of cell suspension is plated onto each well of a 384-well plate preprinted with 0.5 μl of compound in DMSO or DMSO only. The starting cell number is 4000 cells per well. After 72-hour incubation, 10 μl of AlamarBlue solution (440 μM resazurin in PBS) is then added to each well of the plate. After additional 2-hour incubation at 37° C., fluorescence is measured using a TECAN plate reading with excitation at 535 nm and emission 591 nm.

MV4-11 cells = experiment: Cell survival assay (96-well XTT / 384-well AlamarBlue), MV4-11; format: cell-based; conditions: Homo sapiens, Table 10, symbol outside brackets, 72 hours
Description: as §6, §7, §8, §9

SMILES | IC50 (cAbl) [µM] | IC50 (wild type MET kinase) [µM] | IC50 [1] [µM] | further results
CC(=O)O[C@@H](C)C(=O)Nc1nc2[nH]nc(-c3ccccc3Cl)c2s1 | – | > 20 | > 20 | –
O=C(Nc1nc2[nH]nc(-c3ccc(O)cc3)c2s1)C1CC1 [drawing 274] | – | < 5 | 5 to 20 | –
O=C(Nc1nc2[nH]nc(-c3ccccc3Br)c2s1)C1CC1 [drawing 278] | – | 5 to 20 | > 20 | –
COc1ccc(-c2n[nH]c3nc(NC(=O)C4CC4)sc23)cc1 [drawing 280] | – | > 20 | > 20 | –
O=C(Nc1nc2[nH]nc(-c3ccc(Cl)cc3)c2s1)c1ccccc1 [drawing 281] | – | – | – | IC50 (THP cells): 11 to 100 µM; IC50 (MV4-11 cells): 1 to 10 µM
O=C(Nc1nc2[nH]nc(-c3ccccc3)c2s1)c1ccncc1 [drawing 282] | – | – | – | IC50 (THP cells): 11 to 100 µM; IC50 (MV4-11 cells): 1 to 10 µM
COCCOCC(=O)Nc1nc2[nH]nc(-c3ccccc3)c2s1 [drawing 283] | – | – | – | IC50 (THP cells): 11 to 100 µM; IC50 (MV4-11 cells): 1 to 10 µM
CC(=O)N1CCC(C(=O)Nc2nc3[nH]nc(-c4ccccc4)c3s2)CC1 [drawing 284] | – | – | – | IC50 (THP cells): 11 to 100 µM; IC50 (MV4-11 cells): 1 to 10 µM

Further lines, with some results ahead:

IC50 (cAbl) [µM] | IC50 (wild type MET kinase) [µM] | IC50 [1] [µM] | SMILES | further results
11 to 100 | – | – | Nc1nc2[nH]nc(-c3ccccc3)c2s1 | –
1 to 10 | – | – | O=C(Nc1nc2[nH]nc(-c3cccc(Cl)c3)c2s1)c1ccccc1 | –
11 to 100 | – | – | O=C(Nc1nc2[nH]nc(-c3ccccn3)c2s1)c1ccccc1 | –
11 to 100 | – | – | COc1ccc(-c2n[nH]c3nc(NC(=O)c4ccccc4)sc23)cc1 | –
< 1 | – | – | O=C(Cc1cccs1)Nc1nc2[nH]nc(-c3ccccc3)c2s1 | –
– | < 5 | 5 to 20 | CC(C)C(=O)Nc1nc2[nH]nc(-c3ccccc3Cl)c2s1 | –
– | 5 to 20 | 5 to 20 | COc1cccc(OC)c1C(=O)Nc1nc2[nH]nc(-c3ccccc3Cl)c2s1 | –
< 1 | – | – | O=C(Nc1nc2[nH]nc(-c3ccccc3)c2s1)c1ccco1 [drawing 264] | –
– | < 5 | 5 to 20 | O=C(Nc1nc2[nH]nc(-c3ccccc3Cl)c2s1)C1CC1 [drawing 276] | –
